Experimental data reported in patent publication US20240382435A1, “NON-CERULOPLASMIN BOUND COPPER LEVEL MONITORING” (ORPHALAN S.A., priority 2021, published 2024).

Experiments:
[1] = system: patients with Wilson's Disease; assay: Serum NCC by copper speciation assay, randomized open-label clinical study (Example 3); assay type: in vivo, human; conditions: for serum NCC levels, comparison between arms: copper speciation assay, Table 4
Protocol: 1.95 mL of rhodium internal standard solution containing 1% TMAH/1% EDTA was combined with 50 μL of human serum in a 15 mL polypropylene tube, capped and rotary mixed for at least 30 minutes. The processed sample was then analysed by ICP-MS on an Agilent 7900x inductively coupled plasma mass spectrometer.
The samples were defrosted and equilibrated to room temperature prior to use, and vortex mixed for approximately 5 seconds. 80 μL of 50 mM Tris-HCl (pH 7.4) buffer solution was combined with 20 μL of the clinical sample, blank or reference standard in a 0.5 mL Eppendorf tube (protein low bind). The diluted sample (100 μL) was transferred to a 0.3 mL polypropylene LC vial and sealed with a screw cap. An aliquot (50 μL) of each processed sample was then analysed by LC-ICP-MS on an Agilent 8900x inductively coupled plasma mass spectrometer.
Speciation analysis of Cu-containing species in the serum samples was performed by an anion exchange high performance liquid chromatography (AE HPLC) column (GE Healthcare MonoQ 5/50 GL, stationary phase (10 μm; 5×50 mm)) with an ammonium acetate gradient (0-250 mM) for 20 min. A flow rate of 1.0 mL/min was used. The chromatographic separation was performed at 25° C. Detection of the eluting Cu species was achieved using a collision/reaction cell Agilent Technologies 8900x ICP-MS spectrometer. The isotopes 63Cu and 65Cu were monitored in time resolved mode analysis using an integration time of 0.3 sec. 63Cu is the most abundant isotope and therefore this isotope was used to quantify copper by LC-ICP-MS.
Efficacy was assessed and treatments were monitored primarily using total copper analysis and a copper speciation assay as outlined in Examples 1 and 2 to determine serum NCC levels.
Eligible patients were clinically stable with their standard of-care D penicillamine chelation therapy for at least 1 year. These patients entered a 12-Week Penicillamine Baseline Period (from study visits on Day 1 to Week 12). During this time, all patients continued their current D penicillamine regimen under study conditions. At the end of the Penicillamine Baseline Period, patients who fulfilled the protocol definition of being adequately controlled and tolerating D penicillamine were randomized in a 1:1 ratio to receive either TETA 4HCl or to continue to receive D penicillamine during a 24-Week Post-Randomization Period (from study visits Week 12 to Week 36).
The primary efficacy endpoint was the serum NCC concentration (in μg/L) at Week 36. Serum NCC concentrations were determined using a copper speciation serum NCC assay using the methodology outlined in Examples 1 and 2. The primary efficacy analysis utilized the serum NCC values from all study visits that were analyzed using a restricted maximum likelihood based general linear model for correlated data. The correlation due to repeated measures was modelled by specifying the variance covariance matrix.

[2] = system: patients with Wilson's Disease; assay: 24-hour urinary copper excretion (UCE), clinical study of Example 3; assay type: in vivo, human; conditions: for 24-hour UCE value, mean / 24-hour UCE value, median / 24-hour UCE change from baseline, mean / 24-hour UCE change from baseline, median: ITT
Protocol: The number and the proportion of patients with a serum NCC value that matched the threshold (eg, serum NCC≤50 μg/L) were presented along with the 95% confidence interval of the proportion by visit and treatment arm. The proportions in the 2 arms were compared using Fisher's exact test. The same approach was applied on 24-hour UCE.

[3] = system: patients with Wilson's Disease; assay: Baseline ALT, clinical study of Example 3
Description: For change from baseline in laboratory measurements, “baseline” was defined as the last non-missing value during the Penicillamine Baseline Period, including unscheduled values.

[4] = system: patients with Wilson's Disease; assay: Clinical Global Impression of Change (CGIC) rating scale, clinical study of Example 3; assay type: in vivo, human; parameters: key: 7-point ordinal CGIC scale, 4 = no change; conditions: 7-point scale, ITT
Description: The CGIC rating scale, a 7-point ordinal score, was summarized by visit and treatment arm, and compared between arms using a stratified Cochran-Mantel-Haenszel test. The UWDRS, a continuous measure, was summarized by visit and treatment arm with descriptive statistics for absolute values and the changes from baseline.

[5] = Day 1, 12-Week Penicillamine Baseline Period (all patients on D-penicillamine), ITT population, by arm
[6] = Week 4, Penicillamine Baseline Period (all patients on D-penicillamine), ITT
[7] = Week 8, Penicillamine Baseline Period (all patients on D-penicillamine), ITT
[8] = Week 12 (randomization), end of Penicillamine Baseline Period, ITT
[9] = Week 16, 24-Week Post-Randomization Period, ITT
[10] = Week 16, Post-Randomization Period, ITT
[11] = Week 20, Post-Randomization Period, ITT
[12] = Week 24, Post-Randomization Period, ITT
[13] = Week 28, Post-Randomization Period, ITT
[14] = Week 32, Post-Randomization Period, ITT
[15] = Week 36 (primary efficacy endpoint), Post-Randomization Period, ITT
[16] = Week 36, Post-Randomization Period, ITT
[17] = Day 1, 12-Week Penicillamine Baseline Period (all patients on D-penicillamine), by arm
[18] = Week 4, Penicillamine Baseline Period (all patients on D-penicillamine)
[19] = Week 12 (randomization), end of Penicillamine Baseline Period
[20] = Week 16, 24-Week Post-Baseline Period
[21] = Week 24, 24-Week Post-Baseline Period
[22] = Week 36, 24-Week Post-Baseline Period
[23] = Week 4, Penicillamine Baseline Period (all patients on D-penicillamine), 4 = no change
[24] = Week 12, Penicillamine Baseline Period
[25] = Week 16, Post-Randomization Period
[26] = Week 24, Post-Randomization Period
[27] = Week 36, Post-Randomization Period

SMILES: CC(C)(S)[C@@H](N)C(=O)O [D-Penicillamine, D-penicillamine]
- serum NCC value, mean [1, 5]: 63.9 µg/L
- serum NCC value, median [1, 5]: 61.0 µg/L
- serum NCC value, mean [1, 6]: 59.4 µg/L
- serum NCC value, median [1, 6]: 58.4 µg/L
- serum NCC value, mean [1, 7]: 71.9 µg/L
- serum NCC value, median [1, 7]: 69.0 µg/L
- serum NCC value, mean [1, 8]: 84.4 µg/L
- serum NCC value, median [1, 8]: 83.0 µg/L
- serum NCC value, mean [1, 9]: 82.8 µg/L
- serum NCC change from baseline, mean [1, 10]: -2.1 µg/L
- serum NCC change from baseline, median [1, 10]: 0.0 µg/L
- serum NCC value, median [1, 10]: 77.5 µg/L
- serum NCC change from baseline, mean [1, 11]: -12.3 µg/L
- serum NCC change from baseline, median [1, 11]: -11.6 µg/L
- serum NCC value, mean [1, 11]: 73.3 µg/L
- serum NCC value, median [1, 11]: 75.5 µg/L
- serum NCC change from baseline, mean [1, 12]: -16.9 µg/L
- serum NCC change from baseline, median [1, 12]: -20.0 µg/L
- serum NCC value, mean [1, 12]: 66.3 µg/L
- serum NCC value, median [1, 12]: 64.0 µg/L
- serum NCC change from baseline, mean [1, 13]: -10.6 µg/L
- serum NCC change from baseline, median [1, 13]: -17.5 µg/L
- serum NCC value, mean [1, 13]: 73.1 µg/L
- serum NCC value, median [1, 13]: 65.1 µg/L
- serum NCC change from baseline, mean [1, 14]: -19.1 µg/L
- serum NCC change from baseline, median [1, 14]: -21.7 µg/L
- serum NCC value, mean [1, 14]: 64.6 µg/L
- serum NCC value, median [1, 14]: 62.0 µg/L
- serum NCC value, mean [1, 15]: 53.4 µg/L
- serum NCC change from baseline, mean [1, 16]: -29.7 µg/L
- serum NCC change from baseline, median [1, 16]: -34.0 µg/L
- serum NCC value, median [1, 16]: 51.0 µg/L
- serum NCC levels, comparison between arms [1]: very similar
- 24-hour UCE value, mean [2, 17]: 568.3 μg/24 hours
- 24-hour UCE value, median [2, 17]: 478.8 μg/24 hours
- 24-hour UCE value, mean [2, 18]: 551.5 μg/24 hours
- 24-hour UCE value, median [2, 18]: 594.6 μg/24 hours
- 24-hour UCE value, mean [2, 19]: 539.1 μg/24 hours
- 24-hour UCE value, median [2, 19]: 496.0 μg/24 hours
- 24-hour UCE change from baseline, mean [2, 20]: −26.8 μg/24 hours
- 24-hour UCE change from baseline, median [2, 20]: −60.3 μg/24 hours
- 24-hour UCE value, mean [2, 20]: 512.1 μg/24 hours
- 24-hour UCE value, median [2, 20]: 501.4 μg/24 hours
- 24-hour UCE change from baseline, mean [2, 21]: 37.9 μg/24 hours
- 24-hour UCE change from baseline, median [2, 21]: 23.4 μg/24 hours
- 24-hour UCE value, mean [2, 21]: 546.8 μg/24 hours
- 24-hour UCE value, median [2, 21]: 495.3 μg/24 hours
- 24-hour UCE change from baseline, mean [2, 22]: 4.9 μg/24 hours
- 24-hour UCE change from baseline, median [2, 22]: −4.7 μg/24 hours
- 24-hour UCE value, mean [2, 22]: 519.7 μg/24 hours
- 24-hour UCE value, median [2, 22]: 536.9 μg/24 hours
- 24-hour UCE, comparison between treatment arms ([2]; all time points analyzed after randomization, statistically significant differences): higher levels of copper excretion
- ALT, mean baseline ([3]; human, in vivo): 35.6 U/L
- Clinical Global Impression of Change Scale, mean [4, 23]: 4.1
- Clinical Global Impression of Change Scale, median [4, 18]: 4.0
- Clinical Global Impression of Change Scale, mean [4, 24]: 3.9
- Clinical Global Impression of Change Scale, median [4, 24]: 4.0
- Clinical Global Impression of Change Scale, mean [4, 25]: 4.1
- Clinical Global Impression of Change Scale, median [4, 25]: 4.0
- Clinical Global Impression of Change Scale, mean [4, 26]: 4.0
- Clinical Global Impression of Change Scale, median [4, 26]: 4.0
- Clinical Global Impression of Change Scale, mean [4, 27]: 4.0
- Clinical Global Impression of Change Scale, median [4, 27]: 4.0

SMILES: Cl.Cl.Cl.Cl.NCCNCCNCCN [TETA 4HCl, trientine tetrahydrochloride]
- serum NCC value, mean [1, 5]: 60.7 µg/L
- serum NCC value, median [1, 5]: 58.2 µg/L
- serum NCC value, mean [1, 6]: 57.6 µg/L
- serum NCC value, median [1, 6]: 58.5 µg/L
- serum NCC value, mean [1, 7]: 70.0 µg/L
- serum NCC value, median [1, 7]: 61.5 µg/L
- serum NCC value, mean [1, 8]: 68.5 µg/L
- serum NCC value, median [1, 8]: 61.1 µg/L
- serum NCC value, mean [1, 9]: 78.0 µg/L
- serum NCC change from baseline, mean [1, 10]: 9.4 µg/L
- serum NCC change from baseline, median [1, 10]: 9.2 µg/L
- serum NCC value, median [1, 10]: 69.6 µg/L
- serum NCC change from baseline, mean [1, 11]: 8.2 µg/L
- serum NCC change from baseline, median [1, 11]: 4.1 µg/L
- serum NCC value, mean [1, 11]: 76.8 µg/L
- serum NCC value, median [1, 11]: 60.8 µg/L
- serum NCC change from baseline, mean [1, 12]: -0.4 µg/L
- serum NCC change from baseline, median [1, 12]: 3.0 µg/L
- serum NCC value, mean [1, 12]: 60.3 µg/L
- serum NCC value, median [1, 12]: 57.0 µg/L
- serum NCC change from baseline, mean [1, 13]: -0.8 µg/L
- serum NCC change from baseline, median [1, 13]: 0.0 µg/L
- serum NCC value, mean [1, 13]: 69.5 µg/L
- serum NCC value, median [1, 13]: 62.4 µg/L
- serum NCC change from baseline, mean [1, 14]: -4.6 µg/L
- serum NCC change from baseline, median [1, 14]: 0.7 µg/L
- serum NCC value, mean [1, 14]: 64.0 µg/L
- serum NCC value, median [1, 14]: 60.0 µg/L
- serum NCC value, mean [1, 15]: 57.6 µg/L
- serum NCC change from baseline, mean [1, 16]: -11.0 µg/L
- serum NCC change from baseline, median [1, 16]: -6.9 µg/L
- serum NCC value, median [1, 16]: 51.1 µg/L
- serum NCC levels, comparison between arms [1]: very similar
- 24-hour UCE value, mean [2, 17]: 550.8 μg/24 hours
- 24-hour UCE value, median [2, 17]: 546.6 μg/24 hours
- 24-hour UCE value, mean [2, 18]: 545.4 μg/24 hours
- 24-hour UCE value, median [2, 18]: 436.1 μg/24 hours
- 24-hour UCE value, mean [2, 19]: 535.1 μg/24 hours
- 24-hour UCE value, median [2, 19]: 590.4 μg/24 hours
- 24-hour UCE change from baseline, mean [2, 20]: −223 μg/24 hours
- 24-hour UCE change from baseline, median [2, 20]: −221 μg/24 hours
- 24-hour UCE value, mean [2, 20]: 316.4 μg/24 hours
- 24-hour UCE value, median [2, 20]: 265.6 μg/24 hours
- 24-hour UCE change from baseline, mean [2, 21]: −247 μg/24 hours
- 24-hour UCE change from baseline, median [2, 21]: −199 μg/24 hours
- 24-hour UCE value, mean [2, 21]: 295.7 μg/24 hours
- 24-hour UCE value, median [2, 21]: 257.8 μg/24 hours
- 24-hour UCE change from baseline, mean [2, 22]: −258 μg/24 hours
- 24-hour UCE change from baseline, median [2, 22]: −231 μg/24 hours
- 24-hour UCE value, mean [2, 22]: 289.4 μg/24 hours
- 24-hour UCE value, median [2, 22]: 234.8 μg/24 hours
- ALT, mean baseline ([3]; baseline (Penicillamine Baseline Period), by treatment arm): 34.7 U/L
- Clinical Global Impression of Change Scale, mean [4, 23]: 4.0
- Clinical Global Impression of Change Scale, median [4, 18]: 4.0
- Clinical Global Impression of Change Scale, mean [4, 24]: 4.0
- Clinical Global Impression of Change Scale, median [4, 24]: 4.0
- Clinical Global Impression of Change Scale, mean [4, 25]: 4
- Clinical Global Impression of Change Scale, median [4, 25]: 4.0
- Clinical Global Impression of Change Scale, mean [4, 26]: 4.0
- Clinical Global Impression of Change Scale, median [4, 26]: 4.0
- Clinical Global Impression of Change Scale, mean [4, 27]: 3.9
- Clinical Global Impression of Change Scale, median [4, 27]: 4.0
